Measurements from patent US11370841B2, “Methods of treating fibroblast growth factor 19-mediated cancers and tumors” (NGM Biopharmaceuticals, Inc., priority 2016, dated 2022).

Columns and labels:
[1] = system: primary human hepatocytes; assay: In vitro pSTAT3 activation in primary human hepatocytes; format: cell-based; settings: purified primary human hepatocytes, 50 ng/ml
Description: In vitro pSTAT3 activation. Primary human hepatocytes were isolated from consenting donors using a modified collagenase/pronase method (BioReclamation/IVT). Cells were diluted in attachment media (DMEM supplemented with 2 mM glutamine, 100 unit/ml penicillin, 100 unit/ml streptomycin, and 10% FBS), and cells were plated on collagen-coated 6-well plate (Becton Dickinson). Four hours later, cells were changed into William's E media containing dexamethasone/T3/insulin and cultured for 16 hours at 37° C. When indicated, 50 ng/ml FGF19 protein or 50 ng/ml human IL-6 (Peprotech) were added.
Cell extracts were prepared in 50 mM Tris-Cl, PH 7.2, 150 mM NaCl, 1% NP-40, 0.1% SDS, 0.5% sodium deoxycholate supplemented with a protease inhibitor cocktail (Roche) and phosphatase inhibitors (Sigma, phosphatase inhibitor cocktail set 2 and set 3), and protein concentrations were determined by BCA protein assay (Thermo Scientific).
Immunoblotting. […] Membranes were washed in TBST extensively, and bound proteins were detected with horseradish peroxidase-conjugated goat-anti-mouse IgG or goat-anti-rabbit IgG antibodies (GE Healthcare) for 1 hour at room temperature. […]
To investigate an in vitro direct effect of FGF19 on STAT3 activation in isolated hepatocytes, pSTAT3^Y705 levels in primary cultures of hepatocytes upon FGF19 stimulation were analyzed by western blotting. […]

FGF19-mediated HCC [2] = assay: Tumorigenicity study in db/db mice (AAV-SOCS3, tofacitinib); format: in vivo
Description: Blood parameters. Blood was collected from tail vein in un-anesthetized animals using microvette serum gel tubes (Sarstedt) for measurements of glucose, insulin, ALT, AST, ALP, bile acids, and FGF19 concentrations. Serum samples were prepared by centrifugation at 4° C. for 10 minutes at 6000 g after clotting at room temperature for 30 minutes. For HbA1c measurements, whole blood was collected after euthanasia by cardiac puncture into EDTA-tubes and quickly inverted multiple times. HbA1c (from whole blood samples) and liver enzyme (from serum samples) levels were measured on Cobas Integra 400 Clinical Analyzer (Roche Diagnostics). Serum FGF19 level was determined by FGF19 enzyme-linked immunosorbent assays (ELISA) (Biovendor). Serum insulin was assessed with ELISA kits from ALPCO. Concentrations of total bile acids in serum were determined using a 3β-hydroxysteroid dehydrogenase method (Diazyme). All assays were performed according to the manufacturers' instructions.
Histology and immunohistochemistry. Livers were fixed in 10% neutral-buffered formalin and embedded in paraffin. 5 μm sections were deparaffinized in xylenes, rehydrated sequentially in graded ethanol (100%, 95%, 80%, 70%, 50%, 2 minutes each). Hematoxylin and eosin staining was performed using standard methods. For immunohistochemical studies, liver sections were subjected to antigen retrieval in a citrate-based Antigen Unmasking Solution (Vector Laboratories), and incubated for 30 minutes with 3% H2O2 at room temperature to block endogenous peroxidase activity. Sections were stained with primary antibodies against glutamine synthetase (Thermo Fisher), BrdU, PCNA, or STAT3 in PBS containing 10% goat serum. Biotinylated secondary antibodies, ABC-HRP reagent (Vectastain ABC kit, #PK-6100, Vector Laboratories) and di-amine-benzidine (DAB) colorimetric peroxidase substrate (#SK-4100, Vector Laboratories) were used for detection. When indicated, sections were counterstained with hematoxylin. Digital imaging microscopy was performed using a Leica DM4000 microscope equipped with DFC500 camera and a scanning platform (Leica). Images for the entire liver section were acquired by stitching 70-96 fields together using Surveyor program for morphometric analysis. Glutamine synthetase-positive tumor areas were quantified using Measure/Count/Area tool from ImagePro software.
Tumorigenicity study in db/db mice. 11 to 12 week old db/db mice received a single intravenous dose of AAV containing either FGF19 or a control gene (green fluorescent protein). Body weight and blood glucose were monitored. […] Mice were euthanized 24 weeks post-AAV administration and examined for liver tumor formation by gross appearance and histology.

FGF19-mediated HCC [3] = assay: Anti-IL-6 treatment in Mdr2-/- mice expressing AAV-FGF19; format: in vivo; settings: prolonged expression of FGF19
Description: Blood parameters. […] Serum insulin was assessed with ELISA kits from ALPCO. […] All assays were performed according to the manufacturers' instructions.
Histology and immunohistochemistry. […] Hematoxylin and eosin staining was performed using standard methods. […] When indicated, sections were counterstained with hematoxylin.
Anti-IL-6 treatment in Mdr2^−/− mice. […] Anti-IL-6 treatment started 14 weeks after AAV injection. Mice were dosed with anti-mouse IL-6 antibody (Bio-X-Cell) or an isotype control antibody (Bio-X-Cell) once weekly i.p. at 10 mg/kg for a total of 10 doses. Mice were euthanized 24 weeks post-AAV administration for liver tumor assessment. When indicated, Mdr2^−/− mice injected with AAV-GFP serve as controls for evaluating serum levels of liver enzymes.

STAT3 = assay: In vivo pSTAT3 activation, immunoblot of liver lysates; settings: db/db mice, 1 mg/kg FGF19 i.p.
Description: In vivo pSTAT3 activation.
Immunoblotting. Cell or tissue lysates were mixed with 4×SDS sample loading buffer (50 mM Tris-Cl, pH6.8, 2.5% SDS, urea, 4% β-mercaptoethanol), heated for 10 minutes at 95° C., and separated on 4-20% SDS-polyacrylamide gels (Life Technologies) in 1×MOPS running buffer. Proteins were transferred onto PVDF membranes (GE Healthcare). Membranes were blocked in TBST buffer (20 mM Tris-Cl, pH 7.6, 137 mM NaCl, 0.1% Tween-20) containing 5% non-fat dry milk for 1 hour at room temperature, and incubated with anti-pSTAT3^Y705, anti-total STAT3, anti-pERK, anti-total ERK, or anti-β-actin antibodies in blocking buffer at 4° C. overnight. Membranes were washed in TBST extensively, and bound proteins were detected with horseradish peroxidase-conjugated goat-anti-mouse IgG or goat-anti-rabbit IgG antibodies (GE Healthcare) for 1 hour at room temperature. Signals were developed with SuperSignal West Dura extended duration substrate (Thermo Scientific), and captured with a ChemiDoc XrS+ imaging system (Bio-Rad).
To examine STAT3 activation following FGF19 treatment in vivo, 11 week old diabetic db/db mice (on BKS background) were administered with 1 mg/kg of recombinant FGF19 protein i.p., and livers were harvested after 2 hours. Phosphorylation of STAT3 at tyrosine residue 705 (pSTAT3^Y705) was evident by immunoblotting of liver lysates (FIG. 1A). […]

Substance: FGF19: Fibroblast growth factor 19, mature human 194 amino acid polypeptide (SEQ ID NO: 1); recombinant protein or AAV-expressed
- STAT3 activation (pSTAT3 Y705) [1]: lack of STAT3 activation
- HbA1c (FGF19-mediated HCC [2]; AAV-expressed FGF19, in the absence or presence of SOCS3): normalized
- Blood glucose levels (FGF19-mediated HCC [2]; AAV-expressed FGF19, irrespective of tofacitinib treatment): normalized
- Liver tumor formation (FGF19-mediated HCC [3]): induced liver tumor formation
- Phosphorylation of ERK1 and ERK2 in the liver (STAT3; 2 hours): induced phosphorylation
- Phosphorylation of STAT3 at tyrosine residue 705 (pSTAT3 Y705) in liver lysates (STAT3; livers harvested after 2 hours): evident
